Here are results for 15 molecules from ChEMBL document CHEMBL1134915, “Acyl dipeptides as reversible caspase inhibitors. Part 2: further optimization” (Bioorg Med Chem Lett, 2002).

pIC50: −log10 of the molar value.

In assay [1] the target is T1, Caspase-8 (Homo sapiens, UniProt Q14790). Briefly: Inhibition of Caspase-8 enzyme.
Assay [2] concerns the target T2, Caspase-6 (Homo sapiens, UniProt P55212).
T2 sequence (P55212 whole entry): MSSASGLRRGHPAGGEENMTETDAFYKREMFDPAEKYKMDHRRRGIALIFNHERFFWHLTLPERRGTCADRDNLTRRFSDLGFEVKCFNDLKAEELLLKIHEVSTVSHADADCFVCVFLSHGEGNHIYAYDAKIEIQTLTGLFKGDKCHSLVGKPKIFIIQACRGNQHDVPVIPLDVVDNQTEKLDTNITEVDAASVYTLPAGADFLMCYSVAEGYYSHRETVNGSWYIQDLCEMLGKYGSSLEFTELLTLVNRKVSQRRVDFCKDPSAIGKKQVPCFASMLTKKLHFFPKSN
Nature of the assay: Inhibition of Caspase-6.

The target of assay [3] is T3, Caspase-1 (Homo sapiens, UniProt P29466).
T3 sequence (P29466 whole entry): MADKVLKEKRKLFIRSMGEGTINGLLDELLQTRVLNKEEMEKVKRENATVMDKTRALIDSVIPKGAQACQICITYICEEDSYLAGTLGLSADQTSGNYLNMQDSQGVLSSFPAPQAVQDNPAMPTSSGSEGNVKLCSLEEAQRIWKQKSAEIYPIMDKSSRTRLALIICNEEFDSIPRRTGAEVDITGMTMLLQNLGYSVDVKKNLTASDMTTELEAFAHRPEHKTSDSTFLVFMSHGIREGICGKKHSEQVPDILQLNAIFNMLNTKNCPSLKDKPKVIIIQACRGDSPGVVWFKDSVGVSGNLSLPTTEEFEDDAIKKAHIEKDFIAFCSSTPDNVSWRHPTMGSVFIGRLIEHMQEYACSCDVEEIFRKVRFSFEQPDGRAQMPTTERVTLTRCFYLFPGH
Briefly: Inhibition of Caspase-1 enzyme.

In assay [4] the target is T4, Caspase-3 (Homo sapiens, UniProt P42574).
T4 sequence (P42574 whole entry): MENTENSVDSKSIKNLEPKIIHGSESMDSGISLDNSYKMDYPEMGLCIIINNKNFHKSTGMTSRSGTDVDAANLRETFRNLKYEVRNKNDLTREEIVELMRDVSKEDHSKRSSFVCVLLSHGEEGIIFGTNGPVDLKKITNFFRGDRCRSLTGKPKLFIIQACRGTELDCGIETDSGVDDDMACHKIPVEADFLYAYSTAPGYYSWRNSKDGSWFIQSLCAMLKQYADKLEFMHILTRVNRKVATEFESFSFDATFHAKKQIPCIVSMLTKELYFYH
Nature of the assay: Inhibition of Caspase-3.

Assay [5] deals with T5, Caspase-7 (Homo sapiens, UniProt P55210).
T5 sequence (P55210 whole entry): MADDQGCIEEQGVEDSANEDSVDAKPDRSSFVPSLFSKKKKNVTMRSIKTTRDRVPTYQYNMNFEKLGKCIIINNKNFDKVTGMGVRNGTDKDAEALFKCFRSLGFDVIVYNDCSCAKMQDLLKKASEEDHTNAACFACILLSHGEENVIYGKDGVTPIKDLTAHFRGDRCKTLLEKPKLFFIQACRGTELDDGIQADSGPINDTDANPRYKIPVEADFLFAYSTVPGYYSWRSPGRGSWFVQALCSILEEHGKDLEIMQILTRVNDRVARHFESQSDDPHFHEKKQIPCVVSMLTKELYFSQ
Nature of the assay: Inhibition of Caspase-7 enzyme.

The target of assay [6] is T1, Caspase-8. Briefly: Inhibitory concentration of compound required against Caspase-8 enzyme compared to acylated dipeptides.
The target of assay [7] is T3, Caspase-1. Nature of the assay: Inhibitory concentration of compound required against Caspase-1 enzyme compared to acylated dipeptides.
The target of assay [8] is T2, Caspase-6. Nature of the assay: Inhibitory concentration of compound required against Caspase-6 enzyme compared to acylated dipeptides.
For assay [9], the target named is T4, Caspase-3. Briefly: Inhibitory concentration of compound required against Caspase-3 enzyme compared to acylated dipeptides.
Assay [10] concerns the target T5, Caspase-7. Briefly: Inhibitory concentration of compound required against Caspase-7 enzyme compared to acylated dipeptides.

T1 sequence (Q14790 217-374 limits assumed): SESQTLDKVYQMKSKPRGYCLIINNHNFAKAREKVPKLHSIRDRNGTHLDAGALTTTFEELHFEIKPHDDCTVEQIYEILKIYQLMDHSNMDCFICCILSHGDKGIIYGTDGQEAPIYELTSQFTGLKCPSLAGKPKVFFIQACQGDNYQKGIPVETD
T1 sequence (Q14790 385-479 limits assumed): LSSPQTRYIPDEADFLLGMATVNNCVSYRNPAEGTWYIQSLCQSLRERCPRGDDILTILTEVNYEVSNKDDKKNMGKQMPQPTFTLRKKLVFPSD

Consider `CC(C)C(NC(=O)COc1cccc2c(NS(=O)(=O)C(F)(F)F)cccc12)C(=O)N[C@H]1CC(=O)OC1O` (some centres not stated), for which the pIC50 was 6.21 at Caspase-8 [1]; 6.00 against Caspase-6 [2]; 6.90 against Caspase-1 [3]; 6.68 against Caspase-3 [4]; 4.96 against Caspase-7 [5].

As to `CC(C)C(NC(=O)COc1cc2ccccc2cc1NS(=O)(=O)C(F)(F)F)C(=O)N[C@H]1CC(=O)OC1O` (some centres not stated), the negative logarithm of the IC50 (pIC50) was 5.85 on Caspase-8 [1]; 5.52 on Caspase-6 [2]; 5.66 at Caspase-1 [3]; 5.72 against Caspase-3 [4]; 4.36 at Caspase-7 [5].

As to `CC(C)CC(NC(=O)[C@@H](CCC(=O)O)Oc1cccc2ccccc12)C(=O)N[C@H]1CC(=O)OC1O` (some centres not stated), the negative logarithm of the IC50 (pIC50) against Caspase-8 [1] was 7.92; at Caspase-6 [2] it was 7.82; against Caspase-3 [4], 7.68; against Caspase-7 [5], 6.23.

Turning to `CC(C)C(NC(=O)COc1c(C(=O)O)ccc2ccccc12)C(=O)N[C@H]1CC(=O)OC1O` (some centres not stated), the pIC50 on Caspase-8 [1] is 7.32; against Caspase-6 [2], 5.84; against Caspase-1 [3] it was 6.41; against Caspase-3 [4], 7.27; at Caspase-7 [5], 5.78.

`CC(C)CC(NC(=O)CNc1cccc(Oc2ccccc2)c1)C(=O)N[C@H]1CC(=O)OC1O` (some centres not stated): the pIC50 against Caspase-8 [1] is 6.17; against Caspase-6 [2], 6.51; against Caspase-1 [3], 6.48; against Caspase-3 [4] it was 6.64; at Caspase-7 [5], 5.57.

As to `CC(C)CC(NC(=O)[C@H](CCC(=O)O)Oc1cccc2ccccc12)C(=O)N[C@H]1CC(=O)OC1O` (some centres not stated), the pIC50 against Caspase-8 [1] is 7.51; at Caspase-6 [2], 8.46; on Caspase-3 [4], 8.42; on Caspase-7 [5], 6.89.

For `CC(C)CC(NC(=O)CNCC(Cc1ccccc1)c1ccccc1)C(=O)N[C@H]1CC(=O)OC1O` (some centres not stated), the pIC50 against Caspase-8 [1] is 6.00; at Caspase-6 [2], 6.23; on Caspase-1 [3] it was 6.10; on Caspase-3 [4], 6.49; at Caspase-7 [5] it was 5.53.

On to `CC(C)C[C@H](NC(=O)C(C)Nc1cccc2ccccc12)C(=O)N[C@H]1CC(=O)OC1O` (some centres not stated), for which the negative-log IC50 (pIC50) against Caspase-8 [1] was 7.77; against Caspase-6 [2] it was 6.51; on Caspase-3 [4], 6.29; against Caspase-7 [5] it was 5.14.

As for `CC(C)C(NC(=O)CCOc1cccc2ccccc12)C(=O)N[C@H]1CC(=O)OC1O` (some centres not stated), the pIC50 against Caspase-8 [1] is 4.71; on Caspase-6 [2], 5.34; against Caspase-1 [3], 6.60; against Caspase-3 [4], 5.36; at Caspase-7 [5], 4.43.

Consider `CC(C)CC(NC(=O)CNc1cccc2ccccc12)C(=O)N[C@H]1CC(=O)OC1O` (some centres not stated), for which the pIC50 at Caspase-8 [1] was 8.12; on Caspase-6 [2], 7.43; against Caspase-1 [3] it was 7.48; on Caspase-3 [4], 7.89; against Caspase-7 [5] it was 5.88.

As to `CC(C)C(NC(=O)CNc1cccc2ccccc12)C(=O)N[C@H]1CC(=O)OC1O` (some centres not stated), the pIC50 against Caspase-8 [1] is 6.35; at Caspase-6 [2], 5.15; against Caspase-1 [3], 7.82; on Caspase-3 [4], 5.81; against Caspase-7 [5] it was 5.21.

Consider `CC(C)C(NC(=O)COc1cccc2ccccc12)C(=O)N[C@H]1CC(=O)OC1O` (some centres not stated), for which the pIC50 against Caspase-8 [1] was 5.92; on Caspase-6 [2] it was less than 5.00; on Caspase-1 [3] it was 6.47; on Caspase-3 [4], 6.45; against Caspase-7 [5] it was 5.68.

`CC(C)C(NC(=O)COc1ccc2ccccc2c1C(=O)O)C(=O)N[C@H]1CC(=O)OC1O` (some centres not stated): the negative-log IC50 (pIC50) at Caspase-8 [1] was 6.13; at Caspase-6 [2], 5.44; on Caspase-1 [3], 5.53; against Caspase-3 [4], 6.40; at Caspase-7 [5], 4.96.

As for `CC(C)C(NC(=O)COc1cc2ccccc2cc1C(=O)O)C(=O)N[C@H]1CC(=O)OC1O` (some centres not stated), the pIC50 was 6.70 on Caspase-8 [1]; 5.72 at Caspase-6 [2]; 5.72 at Caspase-1 [3]; 6.14 on Caspase-3 [4]; 4.77 against Caspase-7 [5].

Regarding `CC(=O)N[C@@H](CC(=O)O)C(=O)N[C@@H](CCC(=O)O)C(=O)N[C@H](C(=O)N[C@H]1CC(=O)OC1O)C(C)C` (some centres not stated), the negative-log IC50 (pIC50) against Caspase-8 [6] was 7.10; on Caspase-1 [7] it was 7.30; at Caspase-6 [8], 8.00; against Caspase-3 [9], 8.46; on Caspase-7 [10], 8.00.

In general, pIC50 refers to the negative decadic logarithm of the IC50, by convention in mol/L. Lower therefore signals a high IC50.
